Test results: patent US12187713B2, “Immunomodulators, compositions and methods thereof” (Betta Pharmaceuticals Co., Ltd, priority 2019, dated 2025)

Target: PD-1/PD-L1 (Homo sapiens (Human), UniProt Q9NZQ7)
Assay: PD-1/PD-L1 Binding Assay (Alphascreen)
Conditions: numeric values
How it was run: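 PD-1/PD-L1 binding detected by anti-6×His acceptor and streptavidin donor beads after 120 min in the dark at 25 °C. Beforehand, the two proteins were incubated 15 min at 25 °C with inhibitor at 0.015–300 nM (1% DMSO). IC50 comes from a log concentration–response curve.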

Sequence of PD-1/PD-L1 (Q9NZQ7 19-238): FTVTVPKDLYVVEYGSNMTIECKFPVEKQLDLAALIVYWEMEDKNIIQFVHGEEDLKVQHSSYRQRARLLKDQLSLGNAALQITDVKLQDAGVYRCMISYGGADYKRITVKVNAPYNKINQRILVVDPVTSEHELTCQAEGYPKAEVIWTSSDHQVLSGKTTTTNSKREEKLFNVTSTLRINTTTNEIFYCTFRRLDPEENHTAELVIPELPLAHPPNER

Compound	IC50
Cc1c(-c2nc3cc(CN4CCCC4)c(F)c(F)c3[nH]2)cccc1-c1cccc(-c2nc3cc(CN4CCC[C@H]4C(=O)O)c(OC(F)F)cc3o2)c1C [Example 296]	12 nM
COc1nc(OCc2cccc(-c3cccc(-c4nc5cc(CN6CCC[C@H]6C(=O)O)c(OC(F)F)cc5o4)c3C)c2C)nc(OC)c1CN1CCCC1 [Example 212, ((6-(difluoromethoxy)-2-(3′-(((4,6-dimethoxy-5-(pyrrolidin-1-ylmethyl)pyrimidin-2-yl)oxy)methyl)-2,2′-dimethyl-[1,1′-biphenyl]-3-yl)benzo[d]oxazol-5-yl)methyl)-L-proline]	8.4 nM
Cc1c(-c2nc3cc(CNCC4(CO)CC(F)(F)C4)c(OC(F)F)cc3o2)cccc1-c1cccc(-c2nc3cc(CN4CCC[C@H]4C(=O)O)c(OC(F)F)cc3o2)c1C [Example 73, ((2-(3′-(5-((((3,3-difluoro-1-(hydroxymethyl)cyclobutyl)methyl)amino)methyl)-6-(difluoromethoxy)benzo[d]oxazol-2-yl)-2,2′-dimethyl-[1,1′-biphenyl]-3-yl)-6-(difluoromethoxy)benzo[d]oxazol-5-yl)methyl)-L-proline]	0.42 nM
Cc1c(-c2nc3cc(CN4CC5CC4C5)c(OC(F)F)cc3o2)cccc1-c1cccc(-c2nc3cc(CN4CCC[C@H]4C(=O)O)c(OC(F)F)cc3o2)c1C [Example 71, ((2-(3′-(5-((2-azabicyclo[2.1.1]hexan-2-yl)methyl)-6-(difluoromethoxy)benzo[d]oxazol-2-yl)-2,2′-dimethyl-[1,1′-biphenyl]-3-yl)-6-(difluoromethoxy)benzo[d]oxazol-5-yl)methyl)-L-proline]	0.37 nM
Cc1c(-c2c[nH]c([C@@H]3CCCN3)n2)cccc1-c1cccc(-c2nc3cc(CN4CCC[C@H]4C(=O)O)c(OC(F)F)cc3o2)c1C [Example 247, ((6-(difluoromethoxy)-2-(2,2′-dimethyl-3′-(2-((S)-pyrrolidin-2-yl)-1H-imidazol-4-yl)-[1,1′-biphenyl]-3-yl)benzo[d]oxazol-5-yl)methyl)-L-proline]	5.2 nM
Cc1c(-c2nc3cc(CN4CC(C)(C)C4)c(OC(F)F)cc3o2)cccc1-c1cccc(-c2nc3cc(CN4CCC[C@H]4C(=O)O)c(OC(F)F)cc3o2)c1C#N [Example 128, ((2-(2-cyano-3′-(6-(difluoromethoxy)-5-((3,3-dimethylazetidin-1-yl)methyl)benzo[d]oxazol-2-yl)-2′-methyl-[1,1′-biphenyl]-3-yl)-6-(difluoromethoxy)benzo[d]oxazol-5-yl)methyl)-L-proline]	0.14 nM
Cc1c(-c2nc3cc(CN4CCCC4)c(F)cc3[nH]2)cccc1-c1cccc(-c2nc3cc(CN4CCC[C@H]4C(=O)O)c(OC(F)F)cc3o2)c1C [Example 297]	26 nM
Cc1c(-c2nc3cc(CN(C)CCN(C)C)c(OC(F)F)cc3o2)cccc1-c1cccc(-c2nc3cc(CN4CCC[C@H]4C(=O)O)c(OC(F)F)cc3o2)c1C [Example 59, ((6-(difluoromethoxy)-2-(3′-(6-(difluoromethoxy)-5-(((2-(dimethylamino)ethyl)(methyl)amino)methyl)benzo [d]oxazol-2-yl)-2,2′-dimethyl-[1,1′-biphenyl]-3-yl)benzo[d]oxazol-5-yl)methyl)-L-proline]	2.5 nM
Cc1c(-c2cnc(CN3CCCC3)nc2)cccc1-c1cccc(-c2nc3cc(CN4CCC[C@H]4C(=O)O)c(OC(F)F)cc3o2)c1C [Example 281, ((6-(difluoromethoxy)-2-(2,2′-dimethyl-3′-(2-(pyrrolidin-1-ylmethyl)pyrimidin-5-yl)-[1,1′-biphenyl]-3-yl)benzo[d]oxazol-5-yl)methyl)-L-proline]	1.3 nM

Same assay, conditions: range symbols

Compound	IC50
CCNCc1cc2nc(-c3cccc(-c4cccc(-c5nc6cc(CN7CCC[C@H]7C(=O)O)c(OC(F)F)cc6o5)c4C)c3C)oc2cc1OCc1cncc(S(C)(=O)=O)c1 [Example 122, ((6-(difluoromethoxy)-2-(3′-(5-((ethylamino)methyl)-6-((5-(methylsulfonyl)pyridin-3-yl)methoxy)benzo[d]oxazol-2-yl)-2,2′-dimethyl-[1,1′-biphenyl]-3-yl)benzo[d]oxazol-5-yl)methyl)-L-proline]	0.1 to 5 nM
Cc1c(-c2ccc(CN3CCCC3)cn2)cccc1-c1cccc(-c2nc3cc(CN4CCC[C@H]4C(=O)O)c(OC(F)F)cc3o2)c1C [Example 264, ((6-(difluoromethoxy)-2-(2,2′-dimethyl-3′-(5-(pyrrolidin-1-ylmethyl)pyridin-2-yl)-[1,1′-biphenyl]-3-yl)benzo[d]oxazol-5-yl)methyl)-L-proline]	0.1 to 5 nM
Cc1c(-c2ccc3c(c2)CN(CC(=O)O)C3)cccc1-c1cccc(-c2nc3cc(CN4CCC[C@H]4C(=O)O)c(OC(F)F)cc3o2)c1C [Example 291, ((2-(3′-(2-(carboxymethyl)isoindolin-5-yl)-2,2′-dimethyl-[1,1′-biphenyl]-3-yl)-6-(difluoromethoxy)benzo[d]oxazol-5-yl)methyl)-L-proline]	0.1 to 5 nM
Cc1c(-c2nc3cc(CN4CCC[C@H]4C(=O)O)c(OC(F)F)cc3o2)cccc1-c1cccc(-c2nc3cc(CN4CC(C)(CN)C4)cc(C#N)c3o2)c1C [Example 161, ((2-(3′-(5-((3-(aminomethyl)-3-methylazetidin-1-yl)methyl)-7-cyanobenzo[d]oxazol-2-yl)-2,2′-dimethyl-[1,1′-biphenyl]-3-yl)-6-(difluoromethoxy)benzo[d]oxazol-5-yl)methyl)-L-proline]	0.1 to 5 nM
Cc1c(-c2nc3cc(CN4CCC[C@H]4C(=O)O)c(OC(F)F)cc3o2)cccc1-c1cccc(-c2nc3cc(CN4CCC4(C)N)c(OC(F)F)cc3o2)c1C (stereo partly drawn) [Example 40, ((2-(3′-(5-((2-amino-2-methylazetidin-1-yl)methyl)-6-(difluoromethoxy)benzo[d]oxazol-2-yl)-2,2′-dimethyl-[1,1′-biphenyl]-3-yl)-6-(difluoromethoxy)benzo[d]oxazol-5-yl)methyl)-L-proline]	0.1 to 5 nM
Cc1c(-c2nc3cc(CN4CCC4CO)ccc3o2)cccc1-c1cccc(-c2nc3cc(CN4CCC[C@H]4C(=O)O)c(OC(F)F)cc3o2)c1C (stereo partly drawn) [Example 105, ((6-(difluoromethoxy)-2-(3′-(5-((2-(hydroxymethyl)azetidin-1-yl)methyl)benzo[d]oxazol-2-yl)-2,2′-dimethyl-[1,1′-biphenyl]-3-yl)benzo[d]oxazol-5-yl)methyl)-L-proline]	0.1 to 5 nM
Cc1c(-c2nc3cc(CN4CCC[C@@H]4C(=O)O)c(OC(F)F)cc3o2)cccc1-c1cccc(-c2nc3cc(CN4CC(C)(C)C4)cnc3o2)c1C [Example 170, ((6-(difluoromethoxy)-2-(3′-(6-((3,3-dimethylazetidin-1-yl)methyl)oxazolo[5,4-b]pyridin-2-yl)-2,2′-dimethyl-[1,1′-biphenyl]-3-yl)benzo[d]oxazol-5-yl)methyl)-D-proline]	5 to 50 nM
CNCC1CN(Cc2cc3nc(-c4cccc(-c5cccc(-c6nc7cc(CN8CCC[C@H]8C(=O)O)c(OC(F)F)cc7o6)c5C)c4C)oc3cc2OC(F)F)C1 [Example 45, ((6-(difluoromethoxy)-2-(3′-(6-(difluoromethoxy)-5-((3-((methylamino)methyl)azetidin-1-yl)methyl)benzo[d]oxazol-2-yl)-2,2′-dimethyl-[1,1′-biphenyl]-3-yl)benzo[d]oxazol-5-yl)methyl)-L-proline]	0.1 to 5 nM
Cc1c(-c2nc3cc(CN(C)C)c(OCc4ccc(S(C)(=O)=O)cc4)cc3o2)cccc1-c1cccc(-c2nc3cc(CN4CCC[C@H]4C(=O)O)c(OC(F)F)cc3o2)c1C [Example 126, ((6-(difluoromethoxy)-2-(3′-(5-((dimethylamino)methyl)-6-((4-(methylsulfonyl)benzyl)oxy)benzo[d]oxazol-2-yl)-2,2′-dimethyl-[1,1′-biphenyl]-3-yl)benzo[d]oxazol-5-yl)methyl)-L-proline]	0.1 to 5 nM
CNCc1cc2nc(-c3cccc(-c4cccc(-c5nc6cc(CN7CCC[C@H]7C(=O)O)c(OC(F)F)cc6o5)c4C)c3C)oc2cc1OCc1ccc(S(C)(=O)=O)cc1 [Example 125, ((6-(difluoromethoxy)-2-(2,2′-dimethyl-3′-(5-((methylamino)methyl)-6-((4-(methylsulfonyl)benzyl)oxy)benzo[d]oxazol-2-yl)-[1,1′-biphenyl]-3-yl)benzo[d]oxazol-5-yl)methyl)-L-proline]	0.1 to 5 nM
Cc1c(-c2nc3cc(CN4CCCC4C)c(OC(F)F)cc3o2)cccc1-c1cccc(-c2nc3cc(CN4CCC[C@H]4C(=O)O)c(OC(F)F)cc3o2)c1C (stereo partly drawn) [Example 38, ((6-(difluoromethoxy)-2-(3′-(6-(difluoromethoxy)-5-((2-methylpyrrolidin-1-yl)methyl)benzo[d]oxazol-2-yl)-2,2′-dimethyl-[1,1′-biphenyl]-3-yl)benzo[d]oxazol-5-yl)methyl)-L-proline]	0.1 to 5 nM
Cc1c(-c2nc3cc(CN4CC5(CCC5)C4)c(OC(F)F)cc3o2)cccc1-c1cccc(-c2nc3cc(CN4CCC[C@H]4C(=O)O)c(OC(F)F)cc3o2)c1C [Example 48, ((2-(3′-(5-((2-azaspiro [3.3]heptan-2-yl)methyl)-6-(difluoromethoxy)benzo[d]oxazol-2-yl)-2,2′-dimethyl-[1,1′-biphenyl]-3-yl)-6-(difluoromethoxy)benzo[d]oxazol-5-yl)methyl)-L-proline]	0.1 to 5 nM
Cc1c(-c2nc3cc(CN4CCC[C@@H]4C(=O)O)c(OC(F)F)cc3o2)cccc1-c1cccc(-c2ccc(CN3CCCC3)cc2F)c1Cl [Example 224, ((2-(2′-chloro-2″-fluoro-2-methyl-4″- (pyrrolidin-1-ylmethyl)-[1,1′:3′,1″-terphenyl]-3-yl)-6-(difluoromethoxy)benzo[d]oxazol-5-yl)methyl)-D-proline]	0.1 to 5 nM
Cc1c(-c2nc3cc(CN4CCC[C@H]4C(=O)O)c(OC(F)F)cc3o2)cccc1-c1cccc(-c2nc3cc(CNCC4CCC(=O)N4)cnc3o2)c1C (stereo partly drawn) [Example 115, ((6-(difluoromethoxy)-2-(2,2′-dimethyl-3′-(6-((((5-oxopyrrolidin-2-yl)methyl)amino)methyl)oxazolo[5,4-b]pyridin-2-yl)-[1,1′-biphenyl]-3-yl)benzo[d]oxazol-5-yl)methyl)-L-proline]	0.1 to 5 nM
